US20200276181A1, “THIENOISOQUINOLINES AND THEIR DERIVATIVES FOR TARGETING TUBULIN, CH-TOG, AURORA A KINASE, TPX2, CDK5RAP2 AND/OR ASPM” (VALORBEC, SEC, priority 2017, published 2020)

Tests used:
HCT 116 cells = assay: Spindle phenotypes, paclitaxel and C75 combination; format: cell-based; conditions: 7 hours, at 100 and 200 nM
Experimental: FIG. 3A) is a line graph showing cytotoxicity of HeLa cells after treatment with varying concentrations of C75+/−a subthreshold dose of paclitaxel (Taxol™; 3 nM). The IC50 is shown by the dotted line. Bars show standard deviation. FIG. 3B) is a line graph showing the percentage of mitotic HeLa or HFF1 cells treated with a range of paclitaxel concentrations+/−C75 as indicated. The bars indicate standard deviation. FIG. 3C) is a series of bar graphs showing the proportion of HCT 116 cells with bipolar aligned (grey), bipolar misaligned (dark grey), multipolar/fragmented (light grey, top portion of each bar) or monopolar (black) spindles 7 hours after treatment with control (DMSO), varying concentrations of paclitaxel or C75, or both as indicated (n=691; N=3). The bars show standard deviation. The combination treatments were compared to paclitaxel and C75 on their own by calculating ratios varying from the predicted ratio, and found to synergize at 100 and 200 nM. FIG. 3D) is bar graph showing the average distance between centrosome fragments in HCT116 cells after treatments as shown. While centrosome fragments moved closer together with increased concentrations of paclitaxel, they moved further apart with increased concentrations of C75 (n=105; N=3). […]

HCT116 spheroids = assay: Multicellular tumour spheroids; format: cell-based
Experimental: FIGS. 5A, 5B, 5C, 5D, 5E, 5F, 5G, 5H, 5I, 5J, 5K, 5L and 5M show how C75 disrupts or reduces the growth of HeLa, HCT116 and A549 spheroids. FIG. 5A) images show HeLa spheroids over time (3 days) before and after treatment with control (1 μM C87; n=10), 250 nM (n=6) or 500 nM (n=10) of C75. The scale bar is 100 μm. FIG. 5B) is a series images of HeLa spheroids after three days of treatment with control (500 nM C87) or 500 nM C75. The spheroids were stained for fluorescein diacetate (to detect live cells) and propidium iodide (to detect dead cells). […] The scale bar is 100 μm. FIG. 5C) is a line graph showing the change in spheroid area (μm^2) for each day and treatment as indicated. Bars show standard deviation and the asterisks are p<0.05 as determined by the student's t test. FIG. 5D) images show HeLa spheroids over 3 days before and after treatment with empty nanoparticles (control; n=3) or 250 nM of nanoparticle-encapsulated C75 (n=3). The scale bar is 100 μm. […] Bars show standard deviation and the asterisks are p<0.05 as determined by the student's t test. FIG. 5F) is a series of images of HCT116 spheroids treated with control (1 μM C87; n=10), 500 nM C75 (n=10) and 1 μM C75 (n=10). FIG. 5G) is a series images of HCT116 spheroids after six days of treatment with control (1 μM C87) or 1 μM C75. The spheroids were stained for fluorescein diacetate (live cells) and propidium iodide (dead cells). […] FIG. 5H) is a line graph showing the growth in surface area (%) of HCT116 spheroids treated with control (1 μM C87), 500 nM C75 and 1 μM C75 after six days. FIG. 5I) is a series of images of A549 spheroids treated with control (1 μM C87, n=6), 500 nM C75 (n=6), and 1 μM C75 (n=6) over 5 days. The scale bar is 100 μm. FIG. 5J) is a series of images of A549 spheroids after six days of treatment with control (750 nM C87) or 1 μM C75. The spheroids were stained for fluorescein diacetate (live cells) and propidium iodide (dead cells). […] Bars show standard deviation and the asterisks are p<0.05 as determined by the student's t test. FIG. 5L) images show A549 spheroids over 6 days before and after treatment with empty nanoparticles (control; n=3) or 500 nM of nanoparticle-encapsulated C75 (n=3). The scale bar is 100 μm. […] Bars show standard deviation and the asterisks are p<0.05 as determined by the student's t test.
FIG. 11A) is a series of images of HCT116 spheroids treated with control (DMSO), 10 nM paclitaxel, 250 nM C75 or both for 6 days. […] The scale bar for the images is 100 μm. […] As shown in the images, adding paclitaxel and C75 in combination led to regression in spheroid size compared to each treatment on its own.
The thienoisoquinoline compounds may also have potential for use in combinatorial therapies. […]

SMILES: COc1ccc(S(=O)(=O)N2Cc3ccccc3-c3sc(Br)cc32)cc1 [Compound C75]
- combination with paclitaxel vs each alone, spindle phenotypes (HCT 116 cells): synergize
- spheroid growth, single drug (HCT116 spheroids; 10 nM paclitaxel or 250 nM C75 alone, 6 days): failed to grow
- spheroid growth, combination (HCT116 spheroids; 250 nM C75 + 10 nM paclitaxel, 6 days): regressed in size
- effect on spheroids (HCT116 spheroids; HCT116 spheroids): regress the growth
